Measured values from patent publication US3974140A, “Ureidoacetamido-penicillins” (Bayer Aktiengesellschaft, priority 1970, dated 1976).

Legend:
Experiment in all cases: MIC, liquid medium test tube series dilution test
[1] = system: Staph. aureus 133; assay type: cell-based, Staphylococcus aureus; settings: Staph. aureus 133, 24 hours, 37°C
Procedure: (§1) The chemotherapeutic activity of the new penicillins was tested in vivo and in vitro. The in vitro inhibition values (MIC = minimum inhibition concentration (see Tables 1 and 2) were determined in a liquid medium in the test tube series dilution test, with readings being taken after 24 hours' incubation at 37°C. The MIC is indicated by the non-turbid test tube in the dilution series. A complete medium of the following composition was used as the nutrient medium:
(§2) The figures quoted in the Examples for the effectiveness against certain bacteria (units/ml) are minimum inhibitory concentrations in the test tube series dilution test after 24 hours' incubation.

[2] = system: E. coli A 261; assay type: cell-based; settings: E. coli A 261, 24 hours, 37°C
Procedure: as §1, §2

[3] = system: Proteus vulg. 1017; assay type: cell-based, Proteus vulgaris; settings: Proteus vulg. 1017, 24 hours, 37°C
Procedure: as §1, §2

[4] = system: Streptoc. faec. ATCC 9790; assay type: cell-based; settings: Strep. faec. (Enterococcus) ATCC 9790, 24 hours, 37°C
Procedure: as §1, §2

[5] = system: E. coli C 165; assay type: cell-based; settings: E. coli C 165, 24 hours, 37°C
Procedure: as §1, §2

[6] = system: Proteus vulg. 3400; assay type: cell-based, Proteus vulgaris; settings: Proteus vulg. 3400, 24 hours, 37°C
Procedure: as §1, §2

[7] = system: Klebsiella 63; assay type: cell-based; settings: Klebsiella 63, 24 hours, 37°C
Procedure: as §1, §2

[8] = system: Psdm. aerug. Walter; assay type: cell-based, Pseudomonas aerug.; settings: 24 hours, 37°C
Procedure: as §1, §2

Compound	MIC [1]	MIC [2]	MIC [3]	MIC [4]	MIC [5]	MIC [6]	MIC [7]	MIC [8]
CC(=O)N(Cc1ccccc1)C(=O)N[C@@H](C(=O)N[C@@H]1C(=O)N2[C@@H]1SC(C)(C)[C@@H]2C(=O)O)c1ccccc1 [Example 87]	< 0.8 units/ml							
C=CCN(C(=O)NC(C(=O)N[C@@H]1C(=O)N2[C@@H]1SC(C)(C)[C@@H]2C(=O)O)c1cccs1)C(=O)c1ccccc1 (stereo partly drawn) [Example 21, Sodium D,L-α-(3-benzoyl-3-allyl-ureido)-2-thienylmethylpenicillin]	< 0.8 units/ml	> 500 units/ml		100-500 units/ml	20-100 units/ml	20-100 units/ml	20-100 units/ml	100-500 units/ml
CN(C)C(=O)N(C)C(=O)NC(C(=O)N[C@@H]1C(=O)N2[C@@H]1SC(C)(C)[C@@H]2C(=O)O)c1cccs1 (stereo partly drawn) [Example 23, Sodium D,L-α-(3-dimethylaminocarbonyl-3-methyl-ureido)-2-thienylmethylpenicillin]	0.8-4 units/ml	> 500 units/ml		100-500 units/ml	100-500 units/ml	> 500 units/ml	> 500 units/ml	> 500 units/ml
CN(C(=O)NC(C(=O)N[C@@H]1C(=O)N2[C@@H]1SC(C)(C)[C@@H]2C(=O)O)c1cccs1)C(=O)c1ccco1 (stereo partly drawn) [Example 22, Sodium D,L-α-(3-[2-furoyl]-3-methyl-ureido)-2-thienylmethylpenicillin]	< 0.8 units/ml	> 500 units/ml		~ 20 units/ml	4-20 units/ml	4-20 units/ml	20-100 units/ml	20-100 units/ml
CN(C(=O)CCCCl)C(=O)NC(C(=O)N[C@@H]1C(=O)N2[C@@H]1SC(C)(C)[C@@H]2C(=O)O)c1cccs1 (stereo partly drawn) [Example 5, Sodium D,L-(3-γ-chlorobutyryl-3-methyl-ureido)-(2-thienyl)methylpenicillin]	< 0.8 units/ml	100-500 units/ml		100-500 units/ml	4-20 units/ml	20-100 units/ml	20-100 units/ml	20-100 units/ml
CSc1ccc(C(NC(=O)N(C)C(=O)c2ccccc2)C(=O)N[C@@H]2C(=O)N3[C@@H]2SC(C)(C)[C@@H]3C(=O)O)cc1 (stereo partly drawn) [Example 33, Sodium α-(3-benzoyl-3-methyl-ureido)-4-methylthiobenzylpenicillin]	< 0.8 units/ml	100-500 units/ml	4-20 units/ml	20-100 units/ml	4-20 units/ml		4-20 units/ml	4-20 units/ml
COC(=O)N(C)C(=O)NC(C(=O)N[C@@H]1C(=O)N2[C@@H]1SC(C)(C)[C@@H]2C(=O)O)c1cccs1 (stereo partly drawn) [Example 20, Sodium D,L-α-(3-methoxycarbonyl-3-methyl-ureido)-2-thienylmethylpenicillin]	< 0.8 units/ml	> 500 units/ml		20-100 units/ml	20-100 units/ml	100-500 units/ml	20-100 units/ml	100-500 units/ml
Sodium D(-)-α-(3-[2-furoyl]-3-phenyl-ureido)-benzylpenicillin [Example 105 B]	< 0.8 units/ml	> 500 units/ml	> 500 units/ml	20-100 units/ml	4-20 units/ml		100-500 units/ml	> 500 units/ml
CN(C(=O)CCCl)C(=O)NC(C(=O)N[C@@H]1C(=O)N2[C@@H]1SC(C)(C)[C@@H]2C(=O)O)C1CC=CCC1 (stereo partly drawn) [Example 36, Sodium α-(3-β-chloropropionyl-3-methyl-ureido)-cyclohex-3-enylmethylpenicillin]	4-20 units/ml	> 500 units/ml	> 500 units/ml	100-500 units/ml	100-500 units/ml		> 500 units/ml	> 500 units/ml

Second part, the compound after the results:

MIC [1]	MIC [2]	MIC [3]	MIC [4]	MIC [5]	MIC [6]	MIC [7]	MIC [8]	Compound
< 0.8 units/ml	> 500 units/ml							CC1(C)S[C@@H]2[C@H](NC(=O)[C@H](NC(=O)N3CCCC3=O)c3ccccc3)C(=O)N2[C@H]1C(=O)O [Example 102, Sodium D(-)-β-(pyrrolid-2-on-1-yl-carbonylamino)-benzylpenicillin]
< 0.8 units/ml	> 500 units/ml	100-500 units/ml	20-100 units/ml	4-20 units/ml				CN(C=O)C(=O)N[C@@H](C(=O)N[C@@H]1C(=O)N2[C@@H]1SC(C)(C)[C@@H]2C(=O)O)c1ccccc1 [Example 103, Sodium D(-)-β-(3-formyl-3-methyl-ureido)-benzylpenicillin]
< 0.8 units/ml	> 500 units/ml							CCN(C(=O)N[C@@H](C(=O)N[C@@H]1C(=O)N2[C@@H]1SC(C)(C)[C@@H]2C(=O)O)c1ccccc1)C(=O)c1ccco1 [Example 93 B, Sodium D(-)-α-(3-[2-furoyl]-3-ethyl-ureido)-benzylpenicillin]
0.8 units/ml	> 500 units/ml	20-100 units/ml	4-20 units/ml	4-20 units/ml		100-500 units/ml	50-100 units/ml	CCCN(C(=O)N[C@@H](C(=O)N[C@@H]1C(=O)N2[C@@H]1SC(C)(C)[C@@H]2C(=O)O)c1ccccc1)C(=O)c1ccc(OC)c([N+](=O)[O-])c1 [Example 109, Sodium D(-)-α-(3-[3-nitro-4-methoxybenzoyl]-3-n-propyl-uredio)-benzylpenicillin]
< 0.8 units/ml	> 500 units/ml							CCCN(C(=O)N[C@@H](C(=O)N[C@@H]1C(=O)N2[C@@H]1SC(C)(C)[C@@H]2C(=O)O)c1ccccc1)C(=O)c1ccco1 [Example 92 B, Sodium D (-)-α-(3-[2-furoyl]-3-n-propyl-ureido)-benzylpenicillin]
< 0.8 units/ml	> 500 units/ml	100-500 units/ml	~20 units/ml	20-100 units/ml		100-500 units/ml	100-500 units/ml	CC1(C)S[C@@H]2[C@H](NC(=O)[C@H](NC(=O)N3CCCCCC3=O)c3ccccc3)C(=O)N2[C@H]1C(=O)O [Example 101 B, Sodium D(-)-α-(hexahydroazepin-2-on-1-yl-carbonyl-amino)-benzylpenicillin]
< 0.8 units/ml	> 500 units/ml	~500 units/ml	100-500 units/ml	20-100 units/ml		> 500 units/ml	100-500 units/ml	CC1(C)S[C@@H]2[C@H](NC(=O)[C@H](NC(=O)N(C(=O)c3ccccc3)c3ccccc3)c3ccccc3)C(=O)N2[C@H]1C(=O)O [Example 99 B, Sodium D(-)-α-(3-benzoyl-3-phenyl-ureido)-benzylpenicillin]
< 0.8 units/ml								CN(C(=O)N[C@@H](C(=O)N[C@@H]1C(=O)N2[C@@H]1SC(C)(C)[C@@H]2C(=O)O)c1ccccc1)C(=O)c1ccco1 [Example 91, Sodium D(-)-α-(3-[2-furoyl]-3-methyl-ureido)-benzylpenicillin]
